# Where two headings read alike, the source gives them in different places.
# Tests used:
# [1] = system: E. coli ATCC 25922(Kan^S); test: microbe, parasite or virus in culture; assay type: cell-based, Escherichia coli
# Description: (§1) In one embodiment of the present invention, antibacterial spectra against kanamycin intermediates and analogs produced by the present invention were measured. Typical gram-negative strains (E. coli and Pseudomonas aeruginosa) and four clinically isolated strains were employed to check the antibacterial spectra (See table 2).
# (§2) To check the antibacterial spectra of kanamycin biosynthetic intermediates and their analogs, a total six kinds of Gram-negative bacteria such as kanamycin-sensitive (Kan^S) E. coli ATCC 25922, kanamycin-resistant (Kan^R) Pseudomonas aeruginosa ATCC 27853, Kan^S E. coli CCARM (Culture Collection of Antimicrobial Resistant Microbes, Korea) 1A020, Kan^R E. coli CCARM 1A023, amikacin-sensitive (Amk^S) P. aeruginosa CCARM 2206, and amikacin-resistance (Amk^R) P. aeruginosa CCARM 2178 were used.
# (§3) Minimum inhibitory concentrations (MICs) of various kanamycin-related pseudodi- and tri-saccharides and AHBA conjugated kanamycin analogs (except for compounds 16, 18, 19, and 20) were measured by broth microdilution according to the Clinical and Laboratory Standard Institute (CLSI, formerly NCCLS). As described in Example 2, gram-negative E. coli strains, P. aeruginosa strains, and clinically isolated strains were incubated in Mueller-Hinton broth (BD Science) at 30° C. […] An aliquot of water was used as a negative control group. The growth of the strains was observed using the Labsystems Bioscreen C, and the minimum concentrations of the aminoglycoside diluted in the broth medium to inhibit the growth of the bacterial strains were measured.
# [2] = system: E. coli CCARM 1A020(Kan^S); test: MIC by broth microdilution (CLSI), antibacterial spectra; assay type: cell-based, Escherichia coli
# Description: as §1, §2, §3
# [3] = system: E. coli CCARM 1A023(Kan^R); test: as above; assay type: cell-based, Escherichia coli
# Description: as §1, §2, §3
# [4] = system: P. aeruginosa CCARM 2178(Amk^R); test: as above; assay type: cell-based, Pseudomonas aeruginosa; settings: for MIC / activity: clinically isolated amikacin-resistant P. aeruginosa strain
# Description: as §1, §2, §3
# [5] = system: P. aeruginosa CCARM 2206(Amk^S); test: as above; assay type: cell-based, Pseudomonas aeruginosa
# Description: as §1, §2, §3
# [6] = system: P. aeruginosa ATCC 27853(Kan^R); test: microbe, parasite or virus in culture; assay type: cell-based; settings: Pseudomonas aeruginosa, ATCC27853
# Description: as §1, §2, §3
# [7] = system: Gram-negative bacteria (E. coli and Pseudomonas aeruginosa test strains); test: Antibacterial spectra, comparison across test strains; assay type: cell-based; settings: for antibacterial activity, 6′-amino vs 6′-hydroxy pseudodisaccharides: against kanamycin-sensitive E. coli strains, compared with 6′-hydroxy derivatives 3 and 9; for antibacterial activity, 6′-amino vs 6′-hydroxy pseudotrisaccharides: against kanamycin-sensitive test strains, compared with compounds 6 and 12; for antibacterial activity, 3″-amino vs 3″-hydroxy derivatives: against the test strains, compared with corresponding 3″-hydroxy derivatives 5, 13, 14 and 11
# Description: as §1, §2, §3
# [8] = Pseudomonas aeruginosa, CCARM2178
# [9] = Pseudomonas aeruginosa, CCARM2206
# [10] = E. coli ATCC 25922, kanamycin-sensitive typical strain
# [11] = E. coli CCARM 1A020, kanamycin-sensitive clinically isolated strain
# [12] = E. coli CCARM 1A023, kanamycin-resistant clinically isolated strain
# [13] = P. aeruginosa CCARM 2178, amikacin-resistant clinically isolated strain
# [14] = P. aeruginosa CCARM 2206, amikacin-sensitive clinically isolated strain
# [15] = Escherichia coli, E. coli CCARM 1A023, kanamycin-resistant clinically isolated strain, read-out: MIC
# [16] = Pseudomonas aeruginosa, CCARM2178, P. aeruginosa CCARM 2178, amikacin-resistant clinically isolated strain, read-out: MIC
# [17] = Pseudomonas aeruginosa, CCARM2206, P. aeruginosa CCARM 2206, amikacin-sensitive clinically isolated strain, read-out: MIC
Molecule,"MIC [1, 10]","MIC [2, 11]","MIC [3, 12]","MIC [4, 13]","MIC [5, 14]",further results
"N[C@H]1[C@@H](O[C@H]2[C@H](O)[C@@H](O)[C@H](N)C[C@@H]2N)O[C@H](CO)[C@@H](O)[C@@H]1O [Compound 3, paromamine]",,,,,,"MIC ([1]; Escherichia coli, ATCC25922): 128 µg/mL; MIC ([2]; Escherichia coli): 128 µg/mL; MIC ([3]; Escherichia coli): > 128 µg/mL; MIC [4, 8]: > 128 µg/mL; MIC [5, 9]: > 128 µg/mL; MIC [6]: > 128 µg/mL"
"NCC1OC(OC2C(N)CC(N)C(O)C2O)C(O)C(O)C1O (centres unmarked) [Compound 10, 2′-deamino-2′-hydroxyneamine]",64 µg/mL,64 µg/mL,NA (NA represents no activity at 128 μg/mL),NA (NA represents no activity at 128 μg/mL),128 µg/mL,"antibacterial activity, 6′-amino vs 6′-hydroxy pseudodisaccharides [7]: more active"
"NC[C@@H]1O[C@@H](O[C@H]2[C@H](O)[C@@H](O[C@H]3O[C@H](CO)[C@@H](O)[C@H](N)[C@H]3O)[C@H](N)C[C@@H]2N)[C@@H](O)[C@H](O)[C@H]1O [Compound 8, kanamycin A, reference compound]",2 µg/mL,4 µg/mL,NA (NA represents no activity at 128 μg/mL),NA (NA represents no activity at 128 μg/mL),16 µg/mL,"antibacterial activity, 6′-amino vs 6′-hydroxy pseudotrisaccharides [7]: more active; antibacterial activity, 3″-amino vs 3″-hydroxy derivatives [7]: increased activity"
kanamycin D [Compound 14],,128 µg/mL,NA (NA represents no activity at 128 μg/mL),NA (NA represents no activity at 128 μg/mL),NA (NA represents no activity at 128 μg/mL),
"NC1CC(N)C(OC2OC(CO)C(O)C(O)C2O)C(O)C1O (centres unmarked) [Compound 9, 2′-deamino-2′-hydroxyparomamine]",,128 µg/mL,NA (NA represents no activity at 128 μg/mL),NA (NA represents no activity at 128 μg/mL),NA (NA represents no activity at 128 μg/mL),
"NCC[C@H](O)C(=O)N[C@@H]1C[C@H](N)[C@@H](O[C@H]2O[C@H](CO)[C@@H](O)[C@H](O)[C@H]2O)[C@H](O)[C@H]1O[C@H]1O[C@H](CO)[C@@H](O)[C@H](N)[C@H]1O [Compound 17, 1-N-AHBA-kanamycin X]",,,,,,"antibacterial activity ([7]; against all kanamycin and amikacin-resistant test strains): strong antibacterial activity; antibacterial activity compared with amikacin (compound 15) ([7]; against all the test strains): improved antibacterial activity; MIC ([1]; Escherichia coli, ATCC25922): 16 µg/mL; MIC ([2]; Escherichia coli, E. coli CCARM 1A020, kanamycin-sensitive clinically isolated strain, read-out: MIC): 32 µg/mL; MIC [3, 15]: 16 µg/mL; MIC [4, 16]: 64 µg/mL; antibacterial effect ([4]; amikacin-resistant P. aeruginosa): antibacterial effect; MIC / activity [4]: ~64; MIC [5, 17]: 0.25 µg/mL; MIC [6]: 16 µg/mL"
"N[C@@H]1[C@@H](O)[C@@H](O[C@@H]2[C@@H](O)[C@H](O[C@H]3O[C@H](CO)[C@@H](O)[C@H](O)[C@H]3N)[C@@H](N)C[C@H]2N)O[C@H](CO)[C@H]1O [Compound 6, kanamycin C]",16 µg/mL,16 µg/mL,NA (NA represents no activity at 128 μg/mL),NA (NA represents no activity at 128 μg/mL),64 µg/mL,"antibacterial activity, 3″-amino vs 3″-hydroxy derivatives [7]: increased activity"
"NC[C@H]1O[C@H](O[C@H]2[C@H](O)[C@@H](O[C@H]3O[C@H](CO)[C@@H](O)[C@H](O)[C@H]3O)[C@H](N)C[C@@H]2N)[C@H](N)[C@@H](O)[C@@H]1O [Compound 13, 3″-deamino-3″-hydroxykanamycin B]",,128 µg/mL,NA (NA represents no activity at 128 μg/mL),NA (NA represents no activity at 128 μg/mL),NA (NA represents no activity at 128 μg/mL),
"N[C@@H]1[C@@H](O)[C@@H](O[C@@H]2[C@@H](O)[C@H](O[C@H]3O[C@H](CO)[C@@H](O)[C@H](O)[C@H]3O)[C@@H](N)C[C@H]2N)O[C@H](CO)[C@H]1O [Compound 12, kanamycin X]",16 µg/mL,16 µg/mL,NA (NA represents no activity at 128 μg/mL),NA (NA represents no activity at 128 μg/mL),64 µg/mL,"antibacterial activity, 3″-amino vs 3″-hydroxy derivatives [7]: increased activity"
"N[C@H]1[C@@H](O[C@H]2[C@H](O)[C@@H](O[C@H]3O[C@H](CO)[C@@H](O)[C@H](O)[C@H]3O)[C@H](N)C[C@@H]2N)O[C@H](CO)[C@@H](O)[C@@H]1O [Compound 5, 3″-deamino-3″-hydroxykanamycin C]",128 µg/mL,NA (NA represents no activity at 128 μg/mL),NA (NA represents no activity at 128 μg/mL),NA (NA represents no activity at 128 μg/mL),NA (NA represents no activity at 128 μg/mL),
"N[C@@H]1C[C@H](N)[C@@H](O[C@H]2O[C@H](CO)[C@@H](O)[C@H](O)[C@H]2O)C(O)[C@H]1O[C@H]1O[C@H](CO)[C@@H](O)[C@H](O)[C@H]1O (some centres unmarked) [Compound 11, 3″-deamino-3″-hydroxykanamycin X]",,NA (NA represents no activity at 128 μg/mL),NA (NA represents no activity at 128 μg/mL),NA (NA represents no activity at 128 μg/mL),NA (NA represents no activity at 128 μg/mL),
"NCC[C@H](O)C(=O)N[C@@H]1C[C@H](N)[C@@H](O[C@H]2O[C@H](CN)[C@@H](O)[C@H](O)[C@H]2O)[C@H](O)[C@H]1O[C@H]1O[C@H](CO)[C@@H](O)[C@H](N)[C@H]1O [Compound 15, amikacin, reference compound]",,,,,,"MIC ([1]; Escherichia coli, ATCC25922): 128 µg/mL; MIC ([2]; Escherichia coli): 128 µg/mL; MIC [3, 15]: 32 µg/mL; MIC [4, 16]: > 128 µg/mL; MIC / activity [4]: no activity; MIC [5, 17]: ≤ 0.25 µg/mL; MIC [6]: 64 µg/mL"
"NC[C@H]1O[C@H](O[C@H]2[C@H](O)[C@@H](O[C@H]3O[C@H](CO)[C@@H](O)[C@H](N)[C@H]3O)[C@H](N)C[C@@H]2N)[C@H](N)[C@@H](O)[C@@H]1O [Compound 7, kanamycin B, reference compound]",2 µg/mL,4 µg/mL,NA (NA represents no activity at 128 μg/mL),NA (NA represents no activity at 128 μg/mL),32 µg/mL,"antibacterial activity, 6′-amino vs 6′-hydroxy pseudotrisaccharides [7]: more active; antibacterial activity, 3″-amino vs 3″-hydroxy derivatives [7]: increased activity"
"NC[C@H]1O[C@H](O[C@H]2[C@H](O)[C@@H](O)[C@H](N)C[C@@H]2N)[C@H](N)[C@@H](O)[C@@H]1O [Compound 4, neamine]",,,,,,"antibacterial activity, 6′-amino vs 6′-hydroxy pseudodisaccharides [7]: more active; MIC ([1]; Escherichia coli, ATCC25922): 64 µg/mL; MIC ([2]; Escherichia coli): 64 µg/mL; MIC ([3]; Escherichia coli): > 128 µg/mL; MIC [4, 8]: > 128 µg/mL; MIC [5, 9]: 128 µg/mL; MIC [6]: > 128 µg/mL"
